Assay results taken from ChEMBL document CHEMBL5244247, “Natural and synthetic coumarins as antileishmanial agents: A review” (Eur J Med Chem, 2020).
≈ marks a conversion by molar mass, not a printed value. Where “and” joins values, the source holds several entries; their conditions need not be identical. Equal entries are not always repeated. Blank lines part the entries; values can stand above or below the compound they belong to.

Key:
[1] = tested on: Leishmania major; experiment: Antileishmanial activity against promastigote form of Leishmania major assessed as inhibition of parasite growth by MTT colorimetric cell viability assay; format: functional, organism-based
[2] = tested on: Leishmania amazonensis; experiment: Antileishmanial activity against promastigote form of Leishmania amazonensis assessed as parasite growth inhibition incubated for 72 hrs by neubauer counting chamber analysis; format: functional, organism-based
[3] = tested on: Leishmania amazonensis; experiment: Antileishmanial activity against promastigote form of Leishmania amazonensis assessed as inhibition of parasite growth at 200 uM incubated for 72 hrs by neubauer counting chamber analysis relative to control; format: functional
[4] = tested on: Leishmania amazonensis; experiment: Antileishmanial activity against promastigote form of Leishmania amazonensis assessed as parasite growth inhibition incubated for 72 hrs by regression analysis; format: functional, organism-based
[5] = tested on: Leishmania amazonensis; experiment: Antileishmanial activity against intracellular Leishmania amazonensis MHOM/BR/75/Josefa amastigotes infected in BALB/c mouse peritoneal macrophages assessed as parasite growth inhibition incubated for 24 hrs by regression analysis; format: functional, organism-based; conditions: Peritoneal macrophage
[6] = tested on: Leishmania donovani; experiment: Antileishmanial activity against amastigote form of Leishmania donovani; format: functional, organism-based
[7] = tested on: Leishmania donovani; experiment: Antileishmanial activity against promastigote form of Leishmania donovani; format: functional, organism-based
[8] = tested on: Leishmania braziliensis; experiment: Antileishmanial activity against promastigote form of Leishmania braziliensis; format: functional, organism-based; conditions: for IC50: Leishmania braziliensis
[9] = tested on: Leishmania braziliensis; experiment: Antileishmanial activity against amastigote form of Leishmania braziliensis; format: functional
[10] = tested on: Leishmania amazonensis; experiment: Antileishmanial activity against amastigote form of Leishmania amazonensis assessed as parasite growth inhibition incubated for 72 hrs by regression analysis; format: functional, organism-based
[11] = Selectivity index, ratio of CC50 for cytotoxicity against mouse J774G8 cells to IC50 for antileishmanial activity against intracellular Leishmania amazonensis MHOM/BR/75/Josefa amastigotes infected in BALB/c mouse peritoneal macrophages; format: toxicity, cell-based; conditions: read-out: Ratio CC50/IC50
[12] = tested on: Leishmania major; experiment: Antileishmanial activity against promastigote form of Leishmania major assessed as inhibition at 100 uM incubated for 72 hrs by MTT assay relative to control; format: functional
[13] = tested on: Leishmania amazonensis; experiment: Antileishmanial activity against amastigote form of Leishmania amazonensis assessed as parasite growth inhibition; format: functional, organism-based
[14] = tested on: Leishmania amazonensis; experiment: Antileishmanial activity against promastigote form of Leishmania amazonensis assessed as inhibition of parasite growth at 100 uM incubated for 72 hrs by neubauer counting chamber analysis relative to control; format: functional
[15] = tested on: Leishmania major; experiment: Antileishmanial activity against promastigote form of Leishmania major assessed as inhibition incubated for 72 hrs by MTT assay; format: functional, organism-based
[16] = tested on: Leishmania panamensis; experiment: Antileishmanial activity against intracellular Leishmania panamensis amastigotes infected in human U-937 cells assessed as inhibition incubated for 72 hrs by flow cytometry; format: functional, organism-based; conditions: U-937, 72 h
[17] = tested on: Leishmania panamensis; experiment: Antileishmanial activity against intracellular Leishmania panamensis amastigotes infected in human U-937 cells assessed as inhibition at 20 ug/mL incubated for 72 hrs by flow cytometry relative to control; format: functional
[18] = tested on: Leishmania amazonensis; experiment: Antileishmanial activity against Leishmania amazonensis infected in BALB/c mouse assessed as reduction in parasite load at 10 mg/kg, sc administered for 14 days relative to control; format: functional; parameters: scale not given: the % may be the effect or the level left
[19] = tested on: Leishmania major; experiment: Antileishmanial activity against promastigote form of Leishmania major; format: functional, organism-based
[20] = tested on: Leishmania donovani; experiment: Antileishmanial activity against amastigote form of Leishmania donovani at 50 uM assessed as inhibition of parasite growth relative to control; format: functional
[21] = tested on: Leishmania major; experiment: Antileishmanial activity against promastigote form of Leishmania major assessed as inhibition of parasite growth by Litchfield-Wilcoxon method; format: functional, organism-based
[22] = tested on: Leishmania major; experiment: Antiproliferative activity against promastigote form of Leishmania major assessed as lethal dose; format: functional; conditions: read-out: LD50 (the source's name)
[23] = tested on: Leishmania major; experiment: Antileishmanial activity against amastigote form of Leishmania major; format: functional, organism-based
[24] = tested on: Leishmania amazonensis; experiment: Antileishmanial activity against promastigote form of Leishmania amazonensis; format: functional, organism-based
[25] = tested on: Leishmania infantum; experiment: Antileishmanial activity against promastigote form of Leishmania infantum; format: functional, organism-based
[26] = tested on: Leishmania infantum; experiment: Antileishmanial activity against axenic amastigote stage of Leishmania infantum infected in human THP-1 cells assessed as inhibition of parasite growth incubated for 24 hrs by flow cytometry assay; format: functional, organism-based; conditions: THP-1, 24 h
[27] = tested on: THP-1; experiment: Cytotoxicity against human THP-1 cells assessed as inhibition incubated for 24 hrs by flow cytometry assay; format: functional, cell-based; conditions: THP-1, 24 h
[28] = Selectivity index, ratio of IC50 for cytotoxicity against human THP-1 cells to IC50 for antileishmanial activity against axenic amastigote stage of Leishmania infantum infected in human THP-1 cells; format: toxicity, cell-based; conditions: read-out: Selectivity Index

Compound: C=C(C)C(CC/C(C)=C/COc1cc(O)cc2oc(=O)ccc12)OO (stereo not drawn)
IC50 [1]: 20.2 µM

Compound: COc1cc2ccc(=O)oc2c2c1OC(C)(C)C=C2
IC50 [2]: 70 µM
inhibition at 200 µM [3]: 100%

Compound: CCC(C)C(OC)c1c(OC)c(CC=C(C)C)c(OC)c2c(-c3ccccc3)cc(=O)oc12 (stereo not drawn)
IC50 [4]: 1.9 µM
IC50 [5]: 22.2 µM

IC50 [6]: > 90 µM
IC50 [7]: 28.9 µM
Compound: COc1cc(O[C@@H]2O[C@H](CO)[C@@H](O)[C@H](O)[C@H]2O)c2c(-c3ccc(O)c(O)c3)cc(=O)oc2c1

Compound: CCC(C)C(=O)c1c(O)c(CC=C(C)C)c(O)c2c(-c3ccccc3)cc(=O)oc12 (stereo not drawn)
LD50 [8]: 23.2 µg/mL and 60 µg/mL
LD50 [9]: 22 µg/mL
LC50 ([9]; Leishmania braziliensis, read-out: LD50 (the source's name)): 29 µg/mL (≈ 71.3 µM)
IC50 [4]: 3 µg/mL and 7.4 µM
IC50 [10]: 0.88 µg/mL (≈ 2.16 µM)
IC50 [5]: 14.3 µM
selectivity ratio [11]: 4.4

Compound: C[C@@H]1[C@H](O)[C@@H](C)/C=C/C=C/C=C/C=C/C=C/C=C/C=C/[C@H](O[C@@H]2O[C@H](C)[C@@H](O)[C@H](N)[C@@H]2O)C[C@@H]2O[C@](O)(C[C@@H](O)C[C@@H](O)[C@H](O)CC[C@@H](O)C[C@@H](O)CC(=O)O[C@H]1C)C[C@H](O)[C@H]2C(=O)O [AMPHOTERICIN B]
inhibition at 100 µM [12]: 79.8%

Compound: CC(C)=CCOc1ccc2c(-c3ccccc3)cc(=O)oc2c1
IC50 [2]: 21.4 µM
IC50 [13]: 58.1 µM

Compound: COc1cc(OC)c2ccc(=O)oc2c1OC
IC50 [2]: 57.7 µM
inhibition at 100 µM [14]: 91%

Compound: O=c1oc2ccccc2cc1-c1nnc2n1N=C(c1ccc(Cl)cc1)CS2
IC50 [15]: 2.86 µM

IC50 [16]: 53.1 µM
Compound: Cc1cc(=O)oc2cc(OCCCCOc3cc(Cl)ccc3Oc3ccc(Cl)cc3Cl)ccc12
inhibition at 20 µg/mL [17]: 57.1%

Compound: MEGLUMINE ANTIMONATE
Activity ([18]; time 14.0 day): 95.2%

IC50 [19]: 46.8 µg/mL (≈ 122 µM)
Compound: CC1=CC[C@H]2[C@@H](CC[C@@H](O)C2(C)C)[C@]1(C)COc1ccc2ccc(=O)oc2c1

IC50 [6]: 14.2 µM
Compound: N#C/C(=N\Nc1ccccc1)C1=COC(c2cc3ccccc3oc2=O)=CC1C#N (stereo not drawn)
inhibition at 50 µM [20]: 92%

Compound: Cc1cc(=O)oc2cc(OCCCCCOc3cc(Cl)ccc3Oc3ccc(Cl)cc3Cl)ccc12
inhibition at 20 µg/mL [17]: 50%

Compound: CC(C)=CCC/C(C)=C/COc1ccc2ccc(=O)oc2c1
IC50 [21]: 17.1 µM
LC50 [22]: 30 µM

IC50 [23]: 14.9 µg/mL (≈ 61.2 µM)
Compound: COc1ccc2ccc(=O)oc2c1CC=C(C)C [OSTHOLE]

Compound: CCC(C)C(=O)c1c(OC)c(CC=C(C)C)c(OC)c2c(-c3ccccc3)cc(=O)oc12 (stereo not drawn)
IC50 [4]: 15.1 µM

IC50 [6]: 14.2 µM
Compound: N#CCC1=NN=C(c2cc3ccccc3oc2=O)C(CC(=O)c2ccc(Cl)cc2)O1 (stereo not drawn)
inhibition at 50 µM [20]: 95%

IC50 [8]: > 50 µM
IC50 [24]: > 50 µM
IC50 [25]: > 50 µM
Compound: COc1cc2ccc(=O)oc2cc1O [SCOPOLETIN]

IC50 [8]: 32.1 µM
IC50 [24]: 35.8 µM
IC50 [25]: 27.5 µM
Compound: C=CC(C)(C)c1cc2cc3c(cc2oc1=O)OC(C)(C)[C@@H](O)C3
Activity ([18]; time 14 day): 95.6%

Compound: COc1cc2oc(=O)cc(C[Se]C#N)c2cc1OC
IC50 [26]: 0.82 µM
IC50 [27]: 16 µM
selectivity ratio [28]: 19.4

Compound: O=c1cc(-c2ccccc2)c2ccc(O[C@@H]3O[C@H](CO)[C@@H](O)[C@H](O)[C@H]3O)cc2o1
IC50 [2]: 91.8 µM

IC50 [19]: 43.8 µg/mL (≈ 116 µM)
Compound: C=C1C=C[C@H]2C(C)(C)C(=O)CC[C@]2(C)[C@@H]1COc1ccc2ccc(=O)oc2c1

Compound: COC(=O)C1=C(N)Oc2cc(O)c3c(C)cc(=O)oc3c2C1c1ccc(Cl)cc1 (stereo not drawn)
IC50 [13]: 38.4 µM

Compound: CCCCCCCCCCCCCCCCOP(=O)([O-])OCC[N+](C)(C)C [MILTEFOSINE]
IC50 [8]: 10.4 µM
IC50 [26]: 2.84 µM
IC50 [27]: 18.5 µM
IC50 [24]: 9.4 µM
selectivity ratio [28]: 7
IC50 [25]: 7.5 µM

Compound: CC(C)=C1CC[C@H](C)[C@](C)(COc2ccc3ccc(=O)oc3c2)[C@H]1CCC(=O)O [GALBANIC ACID]
IC50 [21]: 165 µM
